# Publication PMC9157788, “Design, Synthesis, and Apoptosis-Promoting Effect Evaluation of Rhopaladins’ Analog 4-Arylidene-5-Oxopyrrolidine Derivatives” (Frontiers in Chemistry, 2022)
# Tests used:
# SiHa cells = assay: MTT cell viability assay, SiHa; type: cell-based; conditions: Homo sapiens, 48 h, read-out: Half inhibitory concentration (IC50), SiHa
# Method: HepG2 (human epidermoid hepatocellular carcinoma cell), 7402 (human epidermoid hepatocellular carcinoma cell), C-33A (human epidermoid cervical carcinoma cell), and HeLa (human epidermoid cervical adenocarcinoma cell) were incubated in Dulbecco’s modified Eagle’s medium (DMEM), which was purchased from Gibco (Grand Island, NY, United States). SiHa cells (human epidermoid cervical squamous cell carcinoma) were incubated in minimum essential medium (MEM, also from Gibco). CaSki (human epidermoid cervical carcinoma cell) and LO2 (human normal liver cell) were incubated in minimum essential medium (MEM, also from Gibco). All cells were maintained at 37°C in a humidified incubator with 5% carbon dioxide, and the media contained 10% fetal bovine serum (FBS, Corning, United States) and 1% penicillin–streptomycin antibiotic solution (Corning, United States). SiHa and CaSki were bought from the China Center for Type Culture Collection (CCTCC). The other five types of cancer cell lines were obtained from the Experiment Center of Medicine, Sinopharm Dongfeng Hospital, Hubei University of Medicine. The compounds were dissolved in dimethyl sulfoxide (DMSO, MP Biomedicals, United States), and cisplatin was purchased from Aladdin, Shanghai, China. The control (0 μM) group was treated with DMSO only in the same conditions, and the DMSO content in the medium was less than 0.1%.
# Cell viability was measured by a 3-(4,5-dimethylthiazol-2-yl)-2,5-diphenyltetrazolium bromide (MTT, MultiSciences, China) assay. The specific experimental steps referred to our previous research ([Zhu et al., 2020]). For each cell line, cells were digested and seeded in 96-well plates at a density of 1 × 10^3 cells/well. […] Then, the formed formazan crystals were dissolved in DMSO, and the plates were estimated in a […] microplate reader (BioTek Inc., Bio-Tek MQX200) at a wavelength of 490 nm. Optical density (OD) values were obtained, and the inhibition rate and IC50 of each compound on different cells were calculated by GraphPad Prism 8.0.1 software. […]
# 7402 cells [1] = assay: Annexin V-FITC/PI flow cytometry apoptosis assay, 7402; type: cell-based, human; conditions: 48 h; for total apoptosis rate: DMSO control 8.96 ± 3.05%
# Method: The effect of RPDPRH on apoptosis was performed using the Annexin V-FITC/PI Apoptosis kit (MultiSciences, China), following the manufacturer’s protocol. The cells were digested, dispersed, and plated into six-well plates with 2 × 10^4 cells/well and treated with RPDPRH (0, 6.25, 12.5, and 25 μM) at various concentrations for 48 h. Upon completion of the treatment, cells were harvested, washed with cool phosphate buffered solution (PBS, Gibco, United States) (0.01 M, pH=7.4), and re-suspended in a 500 μl binding buffer. Annexin V-FITC (5 μl) and PI (10 μl) were added into the cell suspension, and then, the suspension was incubated at room temperature away from light for 5 min. Cells were analyzed by using a flow cytometer (Agilent NovoCyte, China) immediately, and the results of the apoptosis were analyzed by FlowJo software.
# 7402 cells [2] = assay: Wound healing assay, 7402; type: cell-based, human; conditions: 48 h
# Method: The experimental procedures were performed according to conventional methods ([Kovaříková et al., 2014]). Hepatocarcinoma cells at the logarithmic growth stage were taken and inoculated into six-well plates with 2 × 10^4 cells/well. When the cell density is about 80%, the cell wound was scratched with pipette tips. Cells were then washed with PBS and added to the cell culture broth containing 1% serum with varying concentrations of RPDPRH (0 μM, 6.25, 12.5, and 25 μM) for 48 h. Pictures were taken at 0 and 48 h under a microscope (100×). Wound healing rate (%) = [(0 h scratch distance−48 h scratch distance)/0 h scratch distance] × 100%.
smiles,measurement,setting,value
"O=C1/C(=C/c2ccc(Cl)cc2)CC(/C=C/c2ccc(Cl)cc2)(C(=O)NC2CCCCC2)N1c1ccc(F)cc1 (centres unmarked) [RPDPRH, (2E, 4E)-4-(4-chlorobenzylidene)-2-(4-chlorostyryl)-N-cyclohexyl-1-(4-fluorophenyl)-5-oxopyrrolidine-2-carboxamide]",IC50,SiHa cells,17.7 µM
same,early apoptotic cell (LR) rate,"7402 cells [1]; 7402, 6.25 μM",4.37%
same,late apoptotic (UR) rate,"7402 cells [1]; 7402, 6.25 μM",9.34%
same,total apoptosis rate,"7402 cells [1]; 7402, 6.25 μM",13.71 ± 1.30%
same,early apoptotic cell (LR) rate,"7402 cells [1]; 7402, 12.5 μM",8.53%
same,late apoptotic (UR) rate,"7402 cells [1]; 7402, 12.5 μM",15.30%
same,early apoptotic cell (LR) rate,"7402 cells [1]; 7402, 25 μM",11.40%
same,late apoptotic (UR) rate,"7402 cells [1]; 7402, 25 μM",24.60%
same,total apoptosis rate,"7402 cells [1]; 7402, 25 μM",36.00 ± 2.67%
same,wound healing rate,"7402 cells [2]; 7402, 25 μM, vs DMSO control, p < 0.01",reduced significantly
same,wound healing rate,"7402 cells [2]; 7402, 6.25, 12.5 and 25 μM",significantly reduced
